# From ChEMBL document CHEMBL5244278, “Bioisosteres of the Phenyl Ring: Recent Strategic Applications in Lead Optimization and Drug Design” (J Med Chem, 2021)
# Legend:
# [1] = Half life in rat hepatocytes; format: ADME, cell-based, Hepatocyte
# [2] = Lipophilicity, logD of the compound at pH 7.4; format: physicochemical; conditions: buffer
# MDA-MB-231 = experiment: Antiproliferative activity against human MDA-MB-231 cells assessed as cell growth inhibition at 30 uM relative to control; format: functional
# MIA PaCa-2 = experiment: Antiproliferative activity against human MIA PaCa-2 cells assessed as cell growth inhibition at 30 uM relative to control; format: functional
# SU-DHL10 = experiment: Antiproliferative activity against human SU-DHL-10 cells assessed as cell growth inhibition at 30 uM relative to control; format: functional
# [3] = Aqueous solubility of compound at pH 7.4; format: physicochemical
# [4] = Clearance in rat liver microsomes; format: ADME, Microsome
# [5] = Solubility of compound at pH 6.8 by RapidFire mass spectrometry; format: physicochemical; conditions: buffer
# [6] = Solubility of the compound in FaSSIF at pH 6.8 by RapidFire mass spectrometry; format: ADME; conditions: simulated gi fluid
# CYP3A4 = CYP3A4 (Homo sapiens, UniProt P08684); experiment: Inhibition of CYP3A4 (unknown origin); format: ADME
# CYP3A4, sequence (P08684 whole entry): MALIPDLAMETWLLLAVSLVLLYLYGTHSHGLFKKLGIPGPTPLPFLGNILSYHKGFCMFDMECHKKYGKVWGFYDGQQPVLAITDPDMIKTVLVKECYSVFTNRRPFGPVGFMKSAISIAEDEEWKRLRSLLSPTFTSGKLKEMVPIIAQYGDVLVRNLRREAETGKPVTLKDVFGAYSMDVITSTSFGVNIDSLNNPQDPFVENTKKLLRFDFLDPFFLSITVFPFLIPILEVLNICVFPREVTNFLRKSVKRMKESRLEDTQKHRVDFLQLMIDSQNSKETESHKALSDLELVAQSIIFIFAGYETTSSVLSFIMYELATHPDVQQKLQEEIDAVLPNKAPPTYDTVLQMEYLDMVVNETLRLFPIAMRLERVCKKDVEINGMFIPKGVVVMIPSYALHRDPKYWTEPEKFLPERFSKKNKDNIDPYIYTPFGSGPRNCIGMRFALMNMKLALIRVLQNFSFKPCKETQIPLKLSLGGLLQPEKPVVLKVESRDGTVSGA
# [7] = Lipophilicity, logD of the compound in 1-octanol and phosphate buffer by tandem mass spectrometer analysis; format: physicochemical; conditions: 1-octanol/phosphate buffer
# hERG (KCNH2) = hERG (KCNH2) (Homo sapiens, UniProt Q12809); experiment: (§1) Inhibition of hERG channel; format: toxicity; conditions: human
# hERG (KCNH2), sequence (Q12809 whole entry): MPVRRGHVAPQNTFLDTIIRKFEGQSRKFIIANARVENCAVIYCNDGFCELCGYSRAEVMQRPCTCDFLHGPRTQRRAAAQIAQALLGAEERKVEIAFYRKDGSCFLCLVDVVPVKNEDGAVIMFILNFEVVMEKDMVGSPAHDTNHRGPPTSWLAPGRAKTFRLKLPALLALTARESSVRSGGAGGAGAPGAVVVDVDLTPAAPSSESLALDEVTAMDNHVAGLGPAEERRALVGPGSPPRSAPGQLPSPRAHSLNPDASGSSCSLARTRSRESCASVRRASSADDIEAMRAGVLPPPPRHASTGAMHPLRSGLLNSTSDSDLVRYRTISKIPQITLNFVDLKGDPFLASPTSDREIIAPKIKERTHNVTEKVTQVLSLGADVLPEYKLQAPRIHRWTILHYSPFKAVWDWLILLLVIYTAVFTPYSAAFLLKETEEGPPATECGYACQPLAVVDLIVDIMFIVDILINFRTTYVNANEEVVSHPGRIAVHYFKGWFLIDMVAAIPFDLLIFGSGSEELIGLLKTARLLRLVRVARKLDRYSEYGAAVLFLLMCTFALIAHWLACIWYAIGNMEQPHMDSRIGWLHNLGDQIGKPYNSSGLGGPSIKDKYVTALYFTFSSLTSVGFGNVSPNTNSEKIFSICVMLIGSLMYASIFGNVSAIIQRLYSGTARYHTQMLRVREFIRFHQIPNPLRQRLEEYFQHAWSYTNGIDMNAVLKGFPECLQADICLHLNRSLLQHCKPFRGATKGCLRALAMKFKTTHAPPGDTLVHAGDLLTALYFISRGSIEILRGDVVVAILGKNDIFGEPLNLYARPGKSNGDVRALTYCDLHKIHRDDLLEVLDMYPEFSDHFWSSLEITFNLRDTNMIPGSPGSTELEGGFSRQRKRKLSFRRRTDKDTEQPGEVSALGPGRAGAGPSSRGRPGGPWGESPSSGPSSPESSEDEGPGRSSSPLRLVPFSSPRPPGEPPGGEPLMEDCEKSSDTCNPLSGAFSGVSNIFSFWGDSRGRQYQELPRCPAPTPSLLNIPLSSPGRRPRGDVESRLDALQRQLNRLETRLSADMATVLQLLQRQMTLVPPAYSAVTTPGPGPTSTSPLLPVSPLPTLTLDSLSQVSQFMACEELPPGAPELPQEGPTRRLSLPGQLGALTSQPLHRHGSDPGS
# Hepatitis C virus [8] = experiment: microbe, parasite or virus in culture; conditions: GT1b-genotype
# Hepatitis C virus [9] = experiment: microbe, parasite or virus in culture; conditions: GT1a-genotype
# [10] = Prodrug conversion in rat plasma assessed as formation of Isavuconazole from intermediate by measuring half life; format: ADME, cell-free
# [11] = Prodrug conversion in rat plasma assessed as esterase mediated intermediate formation by measuring half life; format: ADME, cell-free
# [12] = Solubility of the compound; format: physicochemical
# [13] = Inhibition of LFA-1/ICAM-1 (unknown origin) interaction; design: species or system Homo sapiens
# [14] = target: Tyrosine-protein kinase ABL1 (Homo sapiens, UniProt P00519); experiment: Inhibition of ABL1 (unknown origin)
# Tyrosine-protein kinase ABL1, sequence (P00519 whole entry): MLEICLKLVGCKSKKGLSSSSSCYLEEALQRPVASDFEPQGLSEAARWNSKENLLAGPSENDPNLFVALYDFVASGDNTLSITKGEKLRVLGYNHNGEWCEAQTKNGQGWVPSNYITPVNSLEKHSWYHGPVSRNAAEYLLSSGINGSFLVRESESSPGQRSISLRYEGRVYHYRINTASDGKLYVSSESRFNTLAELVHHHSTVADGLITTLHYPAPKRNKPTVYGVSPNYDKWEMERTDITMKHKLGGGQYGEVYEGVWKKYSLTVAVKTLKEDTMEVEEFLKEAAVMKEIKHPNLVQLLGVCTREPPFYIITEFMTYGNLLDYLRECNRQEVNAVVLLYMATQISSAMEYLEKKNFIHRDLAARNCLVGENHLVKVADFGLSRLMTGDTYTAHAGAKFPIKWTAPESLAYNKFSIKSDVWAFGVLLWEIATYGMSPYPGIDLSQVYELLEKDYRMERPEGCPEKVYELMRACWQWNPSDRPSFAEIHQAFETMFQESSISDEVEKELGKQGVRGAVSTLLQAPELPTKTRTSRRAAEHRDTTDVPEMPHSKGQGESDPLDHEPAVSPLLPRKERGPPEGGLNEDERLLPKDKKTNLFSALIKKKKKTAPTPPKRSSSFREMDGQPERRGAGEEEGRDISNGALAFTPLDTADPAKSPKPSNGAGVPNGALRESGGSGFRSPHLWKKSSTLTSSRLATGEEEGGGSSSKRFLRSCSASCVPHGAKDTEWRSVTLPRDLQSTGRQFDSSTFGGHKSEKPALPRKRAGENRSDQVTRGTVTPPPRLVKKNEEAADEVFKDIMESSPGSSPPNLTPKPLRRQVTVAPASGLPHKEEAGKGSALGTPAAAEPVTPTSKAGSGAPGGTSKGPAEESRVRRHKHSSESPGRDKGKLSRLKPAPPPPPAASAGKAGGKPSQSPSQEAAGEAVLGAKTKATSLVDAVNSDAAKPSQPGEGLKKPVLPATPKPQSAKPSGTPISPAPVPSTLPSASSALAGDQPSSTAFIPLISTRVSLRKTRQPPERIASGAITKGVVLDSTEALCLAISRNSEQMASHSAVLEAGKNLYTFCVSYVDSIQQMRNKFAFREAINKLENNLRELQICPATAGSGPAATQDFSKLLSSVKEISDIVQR
# physchem = conditions: buffer, pH 7.4
# [15] = target: Beta-1 adrenergic receptor (Rattus norvegicus, UniProt P18090)
# Beta-1 adrenergic receptor, sequence (P18090 whole entry): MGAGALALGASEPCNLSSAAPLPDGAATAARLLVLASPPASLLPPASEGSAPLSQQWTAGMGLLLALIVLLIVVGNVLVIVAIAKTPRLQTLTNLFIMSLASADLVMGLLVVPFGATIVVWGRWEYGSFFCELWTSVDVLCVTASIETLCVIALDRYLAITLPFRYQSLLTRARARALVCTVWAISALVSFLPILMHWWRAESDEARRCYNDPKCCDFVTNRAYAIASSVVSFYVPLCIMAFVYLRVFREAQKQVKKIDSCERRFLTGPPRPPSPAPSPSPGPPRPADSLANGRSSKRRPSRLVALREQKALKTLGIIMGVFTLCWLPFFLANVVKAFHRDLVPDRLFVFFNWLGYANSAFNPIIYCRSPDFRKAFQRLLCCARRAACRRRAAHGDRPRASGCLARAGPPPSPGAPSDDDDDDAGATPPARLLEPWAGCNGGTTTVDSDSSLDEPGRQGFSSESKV
# [16] = target: Beta-2 adrenergic receptor (Bos taurus, UniProt Q28044); experiment: Antagonist activity at bovine lung membrane adrenergic beta-2 receptor; format: cell membranes
# Beta-2 adrenergic receptor, sequence (Q28044 whole entry): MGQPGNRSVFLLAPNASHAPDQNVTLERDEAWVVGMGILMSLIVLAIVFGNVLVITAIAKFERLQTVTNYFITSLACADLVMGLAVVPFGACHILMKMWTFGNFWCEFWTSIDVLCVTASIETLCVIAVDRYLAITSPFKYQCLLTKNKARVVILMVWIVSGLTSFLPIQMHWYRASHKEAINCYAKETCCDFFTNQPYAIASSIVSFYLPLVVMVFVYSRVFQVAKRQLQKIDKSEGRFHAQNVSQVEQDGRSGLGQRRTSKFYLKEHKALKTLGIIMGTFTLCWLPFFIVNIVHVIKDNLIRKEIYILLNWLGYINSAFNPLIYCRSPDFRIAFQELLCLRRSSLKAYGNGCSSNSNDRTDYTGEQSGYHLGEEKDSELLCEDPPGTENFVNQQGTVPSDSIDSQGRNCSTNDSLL
# Trypanosoma cruzi = experiment: Antitrypanosomal activity against Trypanosoma cruzi trypomastigotes infected in mouse 3T3 cells assessed as reduction in parasite growth; format: functional, organism-based; conditions: NIH3T3
# [17] = Aqueous solubility of compound; format: physicochemical
# [18] = Inhibition of human rhinovirus 3C protease; design: species or system Human rhinovirus sp.
# in vitro [19] = conditions: human, liver microsomes
# Human rhinovirus sp. = experiment: Inhibition of human rhinovirus 3C protease assessed as kobs/[I]
# in vitro [20] = conditions: human, Caco-2
# [21] = Inhibition of MAPK (unknown origin); design: species or system Homo sapiens
# [22] = target: Voltage-gated inwardly rectifying potassium channel KCNH2 (Homo sapiens, UniProt Q12809); experiment: as §1; format: toxicity
# Voltage-gated inwardly rectifying potassium channel KCNH2, sequence (Q12809 whole entry): as the sequence (Q12809 whole entry) above
# [23] = Inhibition of WNT (unknown origin) by luciferase reporter assay; design: species or system Homo sapiens
# [24] = Dissociation constant, pKa of the compound; format: physicochemical
# Influenza A virus = experiment: Antiviral activity against Influenza A virus A/PR/8/34 (PR8) strain infected in MDCK cells assessed as reduction in viral infection incubated for 72 hrs by crystal violet staining based assay; format: functional, organism-based
smiles,measurement,setting,value
Oc1ccc(/C=C/c2cc(O)cc(O)c2)cc1 [RESVERATROL],half-life,[1],< 7.5 min
same,logD,[2],2.9
same,inhibition at 30 µM,MDA-MB-231,20%
same,inhibition at 30 µM,MIA PaCa-2,30%
same,inhibition at 30 µM,SU-DHL10,46%
same,solubility,[3],19 µg/mL
O=C(Cc1ccc(-c2ccccc2)cc1)Nc1cc(C2CC2)[nH]n1,CLhep predicted,[4],48 mL/min/kg
same,solubility,[5],< 0.004 µM
same,solubility,[6],0.006 µM
same,IC50,CYP3A4,> 20000 nM
same,logD,[7],4.4
same,IC50,hERG (KCNH2),> 30000 nM
COC(=O)N[C@@H](C(=O)N1CCC[C@@H]1c1ncc(-c2cc3sc(-c4cnc([C@H]5CCCN5C(=O)[C@H](NC(=O)OC)C(C)C)[nH]4)cc3s2)[nH]1)C(C)C,EC50,Hepatitis C virus [8],< 1 nM
same,EC50,Hepatitis C virus [9],10 nM
CNCC(=O)OCc1ccccc1N(C)C(=O)OC(C)[n+]1cnn(C[C@](O)(c2cc(F)ccc2F)[C@H](C)c2nc(-c3ccc(C#N)cc3)cs2)c1 (some centres not stated),t1/2,[10],13 min
same,t1/2,[11],< 2 min
same,solubility,[12],1000 µg/mL
CC(=O)N1CCN(C(=O)/C=C/c2ccc(Sc3ccccc3C(C)C)c(C(F)(F)F)c2)CC1,IC50,[13],60 nM
Cc1ccc(NC(=O)[C@H]2C[C@H](CN3CCN(C)CC3)C2)cc1Nc1nccc(-c2cccnc2)n1,IC50,[14],> 1000 nM
same,solubility,physchem,2000 µM
COC(=O)N[C@@H](C(=O)N1CCC[C@@H]1c1ncc(-c2ccc(-n3ccc4c(-c5cnc([C@H]6CCCN6C(=O)[C@H](NC(=O)OC)C(C)C)[nH]5)csc43)c(Cl)c2)[nH]1)C(C)C,EC50,Hepatitis C virus [8],< 1 nM
Cc1ccc(NC(=O)[C@H]2C[C@@H]2CN2CCN(C)CC2)cc1Nc1nccc(-c2cccnc2)n1,IC50,[14],> 1000 nM
CC(C)NCC(O)c1ccc(Cl)c(Cl)c1 (configuration not stated) [DICHLOROISOPROTERENOL],IC50,[15],115 nM
same,IC50,[16],977 nM
O=C(Cn1ccnc1[N+](=O)[O-])NCc1ccccc1 [BENZNIDAZOLE],EC50,Trypanosoma cruzi,6100 nM
Cc1ccc(NC(=O)CCCCCN2CCN(C)CC2)cc1Nc1nccc(-c2cccnc2)n1,IC50,[14],> 1000 nM
O=C(/C=C/c1ccc(Sc2ccc(Cl)cc2Cl)c(Br)c1)NCCCN1CCCC1=O,IC50,[13],650 nM
CCOC(=O)/C=C/[C@H](C[C@@H]1CCNC1=O)NC(=O)[C@H](Cc1ccc(F)c(F)c1)n1cccc(NC(=O)c2cc(C)on2)c1=O,solubility,[17],25 µg/mL
same,EC50,[18],11 nM
same,remaining at 0.5 h,in vitro [19],19%
same,Ratio,Human rhinovirus sp.,1.8e+06 M/s
same,Papp A→B,in vitro [20],35 ×10⁻⁶ cm/s
COCCn1c(SC)nc(-c2ccc(F)cc2)c1-c1cccc(NC(=O)CCc2cccc(OC)c2)c1,IC50,[21],93 nM
same,solubility,physchem,0.275 µg/mL
COC(=O)N[C@@H](C(=O)N1CCC[C@@H]1c1ncc(-c2ccc(-c3cc4oc(-c5cnc([C@H]6CCCN6C(=O)[C@H](NC(=O)OC)C(C)C)[nH]5)cc4s3)cc2)[nH]1)C(C)C,EC50,Hepatitis C virus [8],< 1 nM
O=C(NCCS(=O)(=O)c1ccc(C(F)(F)F)cn1)c1ccc(-c2ccccc2)cc1,CLhep predicted,[4],39 mL/min/kg
same,solubility,[5],< 0.004 µM
same,solubility,[6],< 0.004 µM
same,IC50,CYP3A4,> 20000 nM
same,IC50,[22],> 30000 nM
Cc1cc(-c2ccc(CNC(=O)c3ccc(-c4cnccn4)cc3)cc2)ccn1,EC50,[23],0.7 nM
NC12CCC(CC1)C2,pKa,[24],11
COCCn1c(SC)nc(-c2ccc(F)cc2)c1-c1cccc(NC(=O)CCc2ccccc2OC)c1,IC50,[21],93 nM
same,solubility,physchem,0.0255 µg/mL
Cc1cc(-c2ccc(CNC(=O)C34CC(c5cnccn5)(C3)C4)cc2)ccn1,EC50,[23],> 50 nM
Cc1ccc(NC(=O)[C@@H]2CC[C@H](CN3CCN(C)CC3)C2)cc1Nc1nccc(-c2cccnc2)n1,IC50,[14],> 1000 nM
same,solubility,physchem,885 µM
N#Cc1ccccc1Br,solubility,physchem,412 µg/mL
CC(=O)N1CCN(c2nc(-c3ccc(Sc4ccccc4C(C)C)c(C(F)(F)F)c3)co2)CC1,IC50,[13],2500 nM
Cc1ccc(NC(=O)[C@@H]2C[C@H]2CN2CCN(C)CC2)cc1Nc1nccc(-c2cccnc2)n1,IC50,[14],> 1000 nM
same,solubility,physchem,3720 µM
CC/C=N/OCC(O)CNC(C)(C)C (configuration not stated),IC50,[15],26300 nM
same,IC50,[16],1550 nM
O=C(O)/C(O)=C/C(=O)C1CCCCC1,IC50,Influenza A virus,29400 nM
COCCn1c(SC)nc(-c2ccc(F)cc2)c1-c1cccc(NC(=O)CCc2ccc(OC)cc2)c1,IC50,[21],48 nM
same,solubility,physchem,0.0473 µg/mL
COc1ccccc1N1CCN(CCCCNC(=O)c2ccc(-c3ccccc3)cc2)CC1,CLhep predicted,[4],51 mL/min/kg
same,solubility,[5],< 0.005 µM
same,solubility,[6],0.021 µM
same,IC50,CYP3A4,> 20000 nM
Cc1ccc(NC(=O)C23CC(CN4CCN(C)CC4)(C2)C3)cc1Nc1nccc(-c2cccnc2)n1,IC50,[14],> 1000 nM
same,solubility,physchem,2680 µM
